Source: US20130029973A1, “TETRAHYDROBENZOTHIOPHENE COMPOUND” (ASTELLAS PHARMA INC., priority 2010, published 2013)

Tests used:
rat NPT-IIb = target: T1, rat NPT-IIb (Rattus norvegicus, UniProt Q9JJ09); assay: 33P phosphate uptake inhibiting action of rat NPT-IIb expressing cell; assay type: cell-based; settings: HEK293; evaluation concentration 1 μM; 33P uptake in rat NPT-IIb stably expressing 293 cells; read-out: Rat NPT-IIb inhibitory rate (%)
T1 construct: rat NPT-IIb ORF was cloned into p3×FLAG-CMV-10; 3xFLAG (N); expressed in transfected cells
T1 sequence (Q9JJ09 1-695): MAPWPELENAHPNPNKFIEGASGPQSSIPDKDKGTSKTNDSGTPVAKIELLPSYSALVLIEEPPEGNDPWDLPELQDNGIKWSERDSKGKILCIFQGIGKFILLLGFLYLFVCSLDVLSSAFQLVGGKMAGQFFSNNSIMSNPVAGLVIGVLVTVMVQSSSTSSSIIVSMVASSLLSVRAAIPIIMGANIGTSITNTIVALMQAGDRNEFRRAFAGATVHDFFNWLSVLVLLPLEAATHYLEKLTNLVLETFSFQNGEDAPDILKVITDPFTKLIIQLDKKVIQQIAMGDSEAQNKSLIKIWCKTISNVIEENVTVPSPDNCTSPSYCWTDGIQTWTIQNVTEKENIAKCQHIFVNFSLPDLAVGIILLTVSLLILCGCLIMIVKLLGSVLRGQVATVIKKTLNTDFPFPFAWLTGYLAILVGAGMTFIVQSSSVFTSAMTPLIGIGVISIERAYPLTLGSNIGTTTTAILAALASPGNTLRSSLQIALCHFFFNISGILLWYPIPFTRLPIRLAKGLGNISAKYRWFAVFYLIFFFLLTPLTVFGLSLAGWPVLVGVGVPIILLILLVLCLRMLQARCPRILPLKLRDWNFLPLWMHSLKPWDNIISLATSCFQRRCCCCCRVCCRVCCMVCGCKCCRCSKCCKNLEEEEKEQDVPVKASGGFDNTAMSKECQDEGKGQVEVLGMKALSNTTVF
Excerpt: Test Example 1: ^33P Phosphate Uptake Inhibiting Action of Rat NPT-IIb Expressing Cell
Preparation of Rat NPT-IIb Expressing Cell
Using rat small intestine cDNA library as a template, rat NPT-IIb ORF was cloned into p3×FLAG-CMV-10 by PCR according to a standard method. Then, the cloned rat NPT-IIb expressing plasmid was transfected into 293 cells, and G418 was used to obtain a rat NPT-11b-stably expressing cell line.
Evaluation System on Inhibition of Phosphate Uptake into Rat NPT-IIb Expressing Cell
The rat NPT-Hb expressing cells were seeded into a 96-well plate and incubated overnight. The medium was taken out and washed with buffer A (137 mM N-methyl-D-glucamine, 5.4 mM KCl, 2.8 mM CaCl2, 1.2 mM MgCl2, 10 mM HEPES (adjusted to pH 7.4 with HCl)), and then buffer B (137 mM NaCl, 5.4 mM KCl, 2.8 mM CaCl2, 1.2 mM MgCl2, 0.1 mM KH2PO4, 10 mM HEPES (adjusted to pH 7.4 with KOH)) was added thereto. Then, a compound having 10-fold higher concentration relative to the evaluation concentration was prepared by dilution with the buffer B and added thereto, followed by incubation in CO2 incubator. Buffer B supplemented 50 μCi/mL ^33P was added thereto, followed by further incubation in a CO2 incubator. After the reaction, the buffer was taken out and the cells were washed with buffer C (137 mM NaCl, 10 mM Tris/HCl pH 7.2). Then, Microscint-20 was added thereto and ^33P uptake was measured by using TopCount. The inhibitory rate was determined according to the following equation.
Inhibitory rate (%)=(1−(^33P uptake of drug-treated well)/(^33P uptake of DMSO-added well))×100
For several compounds of the formula (I), rat NPT-11b inhibitory activity at a pharmacological evaluation concentration of 1 μM is shown in Table 1. Here, Ex represents Example No. as denoted below (this shall apply hereinafter).

[1] = test system: orally 32P phosphate loaded rats; assay: Blood radioactivity increase inhibiting action in orally 32P phosphate loaded rats (phosphate absorption inhibitory action); assay type: in vivo; settings: Rattus norvegicus, 0.5 h; 3 mg/kg oral, male Wistar rats; from serum radioactivity AUC0-30min vs control group; read-out: Phosphate absorption inhibitory rate (%)
Experimental: Blood Radioactivity Increase Inhibiting Action in Orally ^32P Phosphate Loaded Rats (Phosphate Absorption Inhibitory Action)
Male Wistar rats (6 to 7 weeks old) were fasted for 24 hours and used as experimental animals. The compound was dissolved or suspended with a solvent, and was used at a concentration of 0.6 mg/mL. The compound-administered animals were forcibly orally administered with the compound at a dose of 3 mg/kg. Control-group animals were administered a solvent containing no compound at a dose of 5 mL/kg. After 5 minutes from administration of the compound or from administration of the solvent, a ^32P-containing phosphate solution (8.3 mM NaH2PO4) was orally administered thereto at a dose of 7.2 mL/kg. After 15 minutes and 30 minutes, the blood was taken from the orbital venous plexus and the serum was collected. Radioactivity in 0.1 mL of the serum was measured by a liquid scintillation counter. AUC0-30min calculated from the measured counts was considered as a phosphate absorption amount. The phosphate absorption inhibitory rate was determined from the AUC0-30min value according to the following equation.
Phosphate absorption inhibitory rate (%)=(1−Phosphate absorption count of compound-administered group/Phosphate absorption count of control group)×100
As a result, it was confirmed that several compounds of the formula (I) have an intestinal phosphate absorption inhibitory action. With the several compounds of the formula (I), the phosphate absorption inhibitory rates at a pharmacological evaluation dose of 3 mg/kg are shown in Table 2.

SMILES	inhibition at 1 µM (rat NPT-IIb)	inhibition in vivo at 3 mg/kg [1]	melting point
CN(CC(O)CO)S(=O)(=O)c1cccc(C(=O)Nc2sc3c(c2C(=O)Nc2ccc(CCc4ccc(C(=O)O)cc4)cc2)CCCC3)c1 (centres unmarked) [Example 29, 4-{2-[4-({[2-({3-[(2,3-dihydroxypropyl)(methyl)sulfamoyl]benzoyl}amino)-4,5,6,7-tetrahydro-1-benzothiophen-3-yl]carbonyl}amino)phenyl]ethyl}benzoic acid]	51%	–	–
O=C(O)CCCN(C1CC1)S(=O)(=O)c1cccc(C(=O)Nc2sc3c(c2C(=O)Nc2ccc(CCc4ccc(C(=O)O)cc4)cc2)CCCC3)c1 [Example 12, 4-{2-[4-({[2-({3-[(3-carboxypropyl)(cyclopropyl)sulfamoyl]benzoyl}amino)-4,5,6,7-tetrahydro-1-benzothiophen-3-yl]carbonyl}amino)phenyl]ethyl}benzoic acid]	76%	≥ 60%	250.8 °C
O=C(O)c1ccc(CCc2ccc(NC(=O)c3c(NC(=O)c4cccc(S(=O)(=O)N(C5CC5)[C@H]5CC[C@H](C(=O)O)CC5)c4)sc4c3CCCC4)cc2)cc1 [Example 4, 4-{2-[4-({[2-({3-[(trans-4-carboxycyclohexyl)(cyclopropyl)sulfamoyl]benzoyl}amino)-4,5,6,7-tetrahydro-1-benzothiophen-3-yl]carbonyl}amino)phenyl]ethyl}benzoic acid]	82%	≥ 60%	–
CCN([C@H]1CC[C@H](C(=O)O)CC1)S(=O)(=O)c1cccc(C(=O)Nc2sc3c(c2C(=O)Nc2ccc(CCCc4ccc(C(=O)O)cc4)cc2)CCCC3)c1 [Example 23, 4-{3-[4-({[2-({3-[(trans-4-carboxycyclohexyl)(ethyl)sulfamoyl]benzoyl}amino)-4,5,6,7-tetrahydro-1-benzothiophen-3-yl]carbonyl}amino)phenyl]propyl}benzoic acid]	86%	≥ 60%	178.5 °C
CC(C)N(C1(C(=O)O)CC1)S(=O)(=O)c1cccc(C(=O)Nc2sc3c(c2C(=O)Nc2ccc(CCc4ccc(C(=O)O)cc4)cc2)CCCC3)c1 [Example 17, 4-{2-[4-({[2-({3-[(1-carboxycyclopropyl)(isopropyl)sulfamoyl]benzoyl}amino)-4,5,6,7-tetrahydro-1-benzothiophen-3-yl]carbonyl}amino)phenyl]ethyl}benzoic acid]	75%	–	261.4 °C
O=C(O)CCCCN(C1CC1)S(=O)(=O)c1cccc(C(=O)Nc2sc3c(c2C(=O)Nc2ccc(CCc4ccc(C(=O)O)cc4)cc2)CCCC3)c1 [Example 34, 4-{2-[4-({[2-({3-[(4-carboxybutyl)(cyclopropyl)sulfamoyl]benzoyl}amino)-4,5,6,7-tetrahydro-1-benzothiophen-3-yl]carbonyl}amino)phenyl]ethyl}benzoic acid]	80%	≥ 60%	220.1 °C
CN(CCC(=O)O)S(=O)(=O)c1cccc(C(=O)Nc2sc3c(c2C(=O)Nc2ccc(CCc4ccc(C(=O)O)cc4)cc2)CCCC3)c1 [Example 10, 4-{2-[4-({[2-({3-[(2-carboxyethyl)(methyl)sulfamoyl]benzoyl}amino)-4,5,6,7-tetrahydro-1-benzothiophen-3-yl]carbonyl}amino)phenyl]ethyl}benzoic acid]	42%	–	230.3 °C
CCCN([C@H]1CC[C@H](C(=O)O)CC1)S(=O)(=O)c1cccc(C(=O)Nc2sc3c(c2C(=O)Nc2ccc(CCCc4ccc(C(=O)O)cc4)cc2)CCCC3)c1 [Example 102]	87%	≥ 60%	–
CC(=O)N1CCN(S(=O)(=O)c2cccc(C(=O)Nc3sc4c(c3C(=O)Nc3ccc(CCc5ccc(C(=O)O)cc5)cc3)CCCC4)c2)CC1 [Example 27, 4-{2-[4-({[2-({3-[(4-acetylpiperazin-1-yl)sulfonyl]benzoyl}amino)-4,5,6,7-tetrahydro-1-benzothiophen-3-yl]carbonyl}amino)phenyl]ethyl}benzoic acid]	58%	–	241.4 °C
O=C(O)c1ccc(CCc2ccc(NC(=O)c3c(NC(=O)c4cccc(S(=O)(=O)N(C5CC5)[C@H]5CC[C@@H](C(=O)O)CC5)c4)sc4c3CCCC4)cc2)cc1 [Example 5, 4-{2-[4-({[2-({3-[(cis-4-carboxycyclohexyl)(cyclopropyl)sulfamoyl]benzoyl}amino)-4,5,6,7-tetrahydro-1-benzothiophen-3-yl]carbonyl}amino)phenyl]ethyl}benzoic acid]	87%	–	–
CCOC(=O)C1(N(CC)S(=O)(=O)c2cccc(C(=O)Nc3sc4c(c3C(=O)Nc3ccc(CCc5ccc(C(=O)O)cc5)cc3)CCCC4)c2)CC1 [Example 70]	83%	–	–
CC(=O)N1CCN(S(=O)(=O)c2cccc(C(=O)Nc3sc4c(c3C(=O)Nc3ccc(CCCc5ccc(C(=O)O)cc5)cc3)CCCC4)c2)CC1 [Example 109]	52%	–	–
C[C@@]1(C(=O)O)CCCN1S(=O)(=O)c1cccc(C(=O)Nc2sc3c(c2C(=O)Nc2ccc(CCc4ccc(C(=O)O)cc4)cc2)CCCC3)c1 [Example 25, 1-[(3-{[3-({4-[2-(4-carboxyphenyl)ethyl]phenyl}carbamoyl)-4,5,6,7-tetrahydro-1-benzothiophen-2-yl]carbamoyl}phenyl)sulfonyl]-2-methylproline]	52%	–	–
CC(C)N(Cc1cccc(C(=O)O)c1)S(=O)(=O)c1cccc(C(=O)Nc2sc3c(c2C(=O)Nc2ccc(CCc4ccc(C(=O)O)cc4)cc2)CCCC3)c1 [Example 58]	65%	≥ 60%	–
CCN(c1ccc(C(=O)O)cc1)S(=O)(=O)c1cccc(C(=O)Nc2sc3c(c2C(=O)Nc2ccc(CCc4ccc(C(=O)O)cc4)cc2)CCCC3)c1 [Example 21]	85%	–	159.4 °C
CCOC(=O)CN(C1CC1)S(=O)(=O)c1cccc(C(=O)Nc2sc3c(c2C(=O)Nc2ccc(CCc4ccc(C(=O)OC)cc4)cc2)CCCC3)c1 [Example 6, methyl 4-{2-[4-({[2-({3-[cyclopropyl(2-ethoxy-2-oxoethyl)sulfamoyl]benzoyl}amino)-4,5,6,7-tetrahydro-1-benzothiophen-3-yl]carbonyl}amino)phenyl]ethyl}benzoate]	–	–	186.8 °C
